Reference: paper PMC2630805, “Anticancer Alkaloid Lamellarins Inhibit Protein Kinases” (Marine Drugs, 2008)
Like-named read-outs stand apart in the source and are kept apart here.

How the values were obtained:
[1] = tested on: HeLa cells; design: method as in PMID 11975488; settings: provided for comparison, ref [18]; cited from earlier work
[2] = target: CK1; assay: CK1 kinase assay (CKS peptide); format: biochemical, porcine
Experimental: CK1 was purified from porcine brain by affinity chromatography on immobilized axin fragment. The mixture of native CK1 isoforms (essentially CK1δ and CK1ɛ) was assayed in three-fold diluted buffer C, using 25 μM CKS peptide, a CK1 selective substrate (RRKHAAIGpSAYSITA, synthesized by Millegen (Labège, France). Assays were performed for 30 min. at 30°C, as described for GSK-3.

[3] = tested on: human neuroblastoma SH-SY5Y cells; assay: SH-SY5Y cell survival, MTS reduction assay; format: cell-based; settings: MTS assay, dose-response after 24 h and 48 h exposure, cell '− (x)' = no activity, x = highest concentration tested, read-out: IC50 SH-SY5Y cell survival
Experimental: We next tested the effects of each lamellarin, at an initial 10 μM concentration, on the survival of the neuroblastoma SH-SY5Y cell line after 48 h exposure (Table 2). Cell survival was estimated by the MTS reduction assay.
SH-SY5Y human neuroblastoma cells were grown in DMEM supplemented with 2mM L-glutamine (Invitrogen, Cergy Pontoise, France), plus antibiotics (penicillin-streptomycin) and a 10% volume of fetal calf serum (FCS) (Invitrogen). Cell viability was determined by means of the MTS (3- (4,5-dimethylthiazol-2-yl)-5- (3-carboxymethoxyphenyl)-2- (4-sulfophenyl)-2H -tetrazolium) reduction method as previously described. Cell death was (also) assayed by LDH release. Lactate dehydrogenase is a stable cytosolic enzyme that is released upon cell lysis. SH-SY5Y cells were also subjected to caspase activity assays. These are based on cleavage of a synthetic caspase substrate DEVD (MP Biomedicals, 199423), a subtrate of active caspase 3/6/7. The assay was carried out according to manufacturer’s instructions.

[4] = target: DYRK1A (Rattus norvegicus, UniProt Q63470); assay: DYRK1A kinase assay (myelin basic protein)
Experimental: (§1) Blank values were subtracted and activities calculated as pmoles of phosphate incorporated during a 30 min. incubation. The activities were expressed in % of the maximal activity, i.e. in the absence of inhibitors. Controls were performed with appropriate dilutions of dimethylsulfoxide. Unless otherwise stated, the P81 phosphocellulose assay was used.
DYRK1A was expressed as a GST fusion protein in E. coli (vector kindly provided by Dr. W. Becker, Institute for Pharmacology and Toxicology, Aachen, Germany) and affinity purified on glutathione-agarose. […] ATP in a final volume of 30 μl. After 30 min incubation at 30°C, 25 μl aliquots of supernatant were treated as described above.

[5] = target: CDK1/cyclin B; assay: CDK1/cyclin B kinase assay (histone H1, P81 phosphocellulose); format: biochemical, starfish (Marthasterias glacialis); settings: 15 μM ATP; cell '− (x)' = no inhibitory activity detected, x = highest concentration tested
Experimental: ATP (3,000 Ci/mmol; 1 mCi/ml) in a final volume of 30 μl. […] The wet filters were counted in the presence of 1 ml ACS (Amersham) scintillation fluid.

[6] = target: CDK5/p25 (Homo sapiens, UniProt Q00535); assay: CDK5/p25 kinase assay (histone H1)
Sequence of CDK5/p25 (Q00535 whole entry): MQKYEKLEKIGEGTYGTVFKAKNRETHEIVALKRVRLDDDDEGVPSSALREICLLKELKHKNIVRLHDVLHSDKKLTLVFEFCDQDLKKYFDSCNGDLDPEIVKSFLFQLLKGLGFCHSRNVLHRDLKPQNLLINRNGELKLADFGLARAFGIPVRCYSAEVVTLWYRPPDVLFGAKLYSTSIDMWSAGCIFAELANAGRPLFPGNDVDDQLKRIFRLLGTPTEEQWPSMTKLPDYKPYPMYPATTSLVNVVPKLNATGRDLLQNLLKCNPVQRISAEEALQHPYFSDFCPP
Sequence of CDK5/p25 (Q15078 99-307 partner limits assumed): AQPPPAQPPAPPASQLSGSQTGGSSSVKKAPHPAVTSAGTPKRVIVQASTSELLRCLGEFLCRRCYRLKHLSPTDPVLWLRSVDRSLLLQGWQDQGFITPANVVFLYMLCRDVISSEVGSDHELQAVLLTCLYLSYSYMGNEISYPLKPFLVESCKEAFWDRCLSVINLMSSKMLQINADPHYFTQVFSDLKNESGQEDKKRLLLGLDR
Experimental: as §1
Its activity was assayed with histone H1 in buffer C as described for CDK1/cyclin B.

[7] = target: GSK-3α/ß; assay: GSK-3α/β kinase assay (GS-1 substrate); format: biochemical, porcine; settings: 15 μM ATP; cell '− (x)' = no inhibitory activity detected, x = highest concentration tested
From the text: GSK-3 α/β was purified from porcine brain by affinity chromatography on immobilized axin [39].

[8] = target: PIM 1 (Homo sapiens, UniProt P11309); assay: PIM1 kinase assay (histone H1); format: biochemical; settings: 15 μM ATP; cell '− (x)' = no inhibitory activity detected, x = highest concentration tested; read-out: IC50 PIM 1
Sequence of PIM 1 (P11309 whole entry, species assumed): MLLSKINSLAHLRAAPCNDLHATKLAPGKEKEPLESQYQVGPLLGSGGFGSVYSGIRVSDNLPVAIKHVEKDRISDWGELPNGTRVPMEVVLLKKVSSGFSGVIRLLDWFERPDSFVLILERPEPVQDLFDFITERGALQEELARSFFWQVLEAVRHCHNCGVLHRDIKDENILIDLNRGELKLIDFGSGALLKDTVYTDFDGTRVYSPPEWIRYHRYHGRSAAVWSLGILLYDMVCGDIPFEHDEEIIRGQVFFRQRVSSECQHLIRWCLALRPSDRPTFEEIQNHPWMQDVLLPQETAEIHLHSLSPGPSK

[9] = 15 μM ATP, cell '− (x)' = no inhibitory activity detected, x = highest concentration tested

| SMILES | IC50 [1] [nM] | IC50 [2] [µM] | IC50 [3] [nM] | IC50 [4] [nM] | IC50 [5] [µM] | IC50 [6] [nM] | IC50 [7] [nM] | IC50 [8] [nM] | IC50 [2, 9] [µM] |
| --- | --- | --- | --- | --- | --- | --- | --- | --- | --- |
| COc1cc(-c2c3c4cc(OC)c(O)cc4oc(=O)c3n3ccc4cc(O)c(OC)cc4c23)ccc1O [Compound 1, lamellarin D] | 11 | 13 | 19 | 450 | 0.5 | 550 | 300 | 100 | – |
| COc1cc(-c2c3c4cc(OC)c(O)cc4oc(=O)c3n3ccc4cc(OC)c(OC)cc4c23)ccc1O [Compound 2, lamellarin α] | – | – | > 10000 | 5000 | 8 | > 10000 | 1400 | 590 | 7.9 |
| COc1cc(-c2c3n(c4c(=O)oc5cc(O)c(OC)cc5c24)CCc2cc(O)c(OC)cc2-3)ccc1O [Compound 3, di-H-lamellarin D] | – | – | 410 | 500 | 1.85 | 110 | 900 | 200 | 5.9 |
| O=c1oc2cc(O)c(O)cc2c2c(-c3ccc(O)c(O)c3)c3c4cc(O)c(O)cc4ccn3c12 [Compound 4, lamellarin H] | > 100000 | – | 450 | > 10000 | > 10 | > 10000 | 9500 | > 10000 | 5.3 |
| O=c1oc2cc(O)c(O)cc2c2c(-c3ccc(O)c(O)c3)c3n(c12)CCc1cc(O)c(O)cc1-3 [Compound 5, di-H-lamellarin H] | – | – | 2550 | > 10000 | > 10 | > 10000 | 670 | > 10000 | 5.2 |
| COc1ccc(-c2c3n(c4c(=O)oc5cc(O)c(OC)cc5c24)CCc2cc(O)c(OC)cc2-3)cc1O [Compound 7, lamellarin L] | – | – | 700 | 140 | 0.38 | 100 | 41 | 250 | > 10 |
| COc1cc(-c2c3c4ccc(O)cc4oc(=O)c3n3ccc4cc(O)c(OC)cc4c23)ccc1O [Compound 9, lamellarin 3] | 40 | – | 56 | 60 | 0.53 | 600 | 580 | 150 | 0.41 |
| COc1ccc2oc(=O)c3c(c(-c4ccc(O)c(OC)c4)c4c5cc(OC)c(O)cc5ccn43)c2c1 [Compound 10, lamellarin 4] | 850 | – | 790 | 80 | 2 | 600 | 50 | 50 | 1.3 |
| COc1cc2c(cc1O)oc(=O)c1c2c(-c2ccc(OC)c(OC)c2)c2c3cc(OC)c(OC)cc3ccn21 [Compound 11, lamellarin 5] | 2500 | – | 8000 | > 10000 | > 10 | > 10000 | > 10000 | 2000 | > 10 |
| COc1cc2c(cc1O)oc(=O)c1c2c(-c2ccc(O)cc2)c2c3cc(OC)c(O)cc3ccn21 [Compound 12, lamellarin 6] | 40 | – | 110 | 90 | 0.1 | 30 | 130 | 330 | 0.8 |
| COc1cccc(-c2c3c4cc(OC)c(O)cc4oc(=O)c3n3ccc4cc(O)c(OC)cc4c23)c1 [Compound 13, lamellarin 7] | 70 | – | 140 | > 10000 | 4.3 | 2100 | 2100 | > 10000 | > 10 |
| COc1cc(-c2c3c4ccccc4oc(=O)c3n3ccc4cc(O)c(OC)cc4c23)ccc1O [Compound 14, lamellarin 8] | 4000 | – | 2650 | 1000 | 5 | 900 | 2200 | 700 | > 10 |
| O=c1oc2ccccc2c2c(-c3ccc(O)c(O)c3)c3c4cc(O)c(O)cc4ccn3c12 [Compound 15, lamellarin 9] | 1100 | – | > 10000 | > 10000 | > 10 | > 10000 | > 10000 | > 10000 | > 10 |
| COc1ccc(-c2c3c4ccccc4oc(=O)c3n3ccc4cc(OC)c(OC)cc4c23)cc1OC [Compound 16, lamellarin 11] | 5700 | – | > 10000 | > 10000 | > 10 | > 10000 | > 10000 | > 10000 | > 10 |
| COc1ccc(-c2c3c4cc5c(cc4oc(=O)c3n3ccc4cc(OC)c(OC)cc4c23)OCO5)cc1OC [Compound 17, lamellarin 12] | > 100000 | – | > 10000 | > 10000 | > 10 | > 10000 | > 10000 | > 10000 | > 10 |
| COc1cc(-c2c3n(c4c(=O)oc5cc(O)c(OC)cc5c24)CCc2c-3cc(OC)c(OC)c2O)ccc1O [Compound 22, lamellarin K] | – | – | > 30000 | > 10000 | > 10 | > 10000 | > 10000 | 600 | 6 |
